Patent publication US8680102B2, “Pyrrole derivatives, their preparation and their therapeutic application” (Sanofi, priority 2008, dated 2014)

Assays:
[1] = biological target: T1, CB1 receptors present at the periphery (Mus musculus, UniProt P47746); test: blocking of the inhibitory effect of CP55940 on the gastrointestinal transit; assay type: in vivo; settings: po route at 10 mg/kg, mice
T1 construct: from tissue; host or cells: whole mouse, in vivo (peripheral / gastrointestinal CB1)
Experimental: A percentage reversion of the effect of CP55940 greater than 50% at 10 mg/kg indicates a significant antagonist power at the level of the CB1 receptors present at the periphery.

[2] = biological target: T2, CB1 receptors present in the brain (Mus musculus, UniProt P47746); test: Measurement (3): blocking of the hypothermic effect induced by CP55940; assay type: in vivo; design: from tissue; host or cells: whole animal, in vivo (brain CB1); settings: iv route at 10 mg/kg
[3] = biological target: T2, CB1 receptors present in the brain; test: Measurement (2): ex vivo test of binding of [3H]-CP55940 in the brain; design: the CB1 receptors present in the brain in mice; from tissue; host or cells: mouse brain, after intravenous administration; settings: iv route at 10 mg/kg, mice
[4] = Measurement (1): quantification of compound in brain and plasma by LC-MS/MS; assay type: in vivo; settings: iv route at 3 mg/kg, mouse, read-out: Ratio: Quantity present in the brain / Quantity present in the plasma

T1 sequence (P47746 whole entry): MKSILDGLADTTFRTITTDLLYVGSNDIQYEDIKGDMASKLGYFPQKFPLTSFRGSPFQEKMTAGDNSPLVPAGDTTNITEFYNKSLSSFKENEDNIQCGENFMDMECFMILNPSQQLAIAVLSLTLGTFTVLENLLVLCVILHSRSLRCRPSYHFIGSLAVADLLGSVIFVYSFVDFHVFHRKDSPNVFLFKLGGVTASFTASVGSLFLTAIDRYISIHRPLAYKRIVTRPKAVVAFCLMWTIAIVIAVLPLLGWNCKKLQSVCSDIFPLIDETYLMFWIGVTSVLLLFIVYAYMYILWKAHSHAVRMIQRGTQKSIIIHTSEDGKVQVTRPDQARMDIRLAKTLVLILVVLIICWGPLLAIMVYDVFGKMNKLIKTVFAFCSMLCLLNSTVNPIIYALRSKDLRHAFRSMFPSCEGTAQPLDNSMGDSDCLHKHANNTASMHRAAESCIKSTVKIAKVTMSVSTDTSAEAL
T2 sequence (P47746 whole entry): as above

Row | % reversion of the effect of CP55940 on the GIT [1] [%] | % reversion of the hypothermic effect of CP55940 [2] [%] | inhibition at 10 mg/kg [3] [%] | Kp [4] | Structure (SMILES)
1 | 97 | 60 | 23 |  | NC(=O)C1(N2CCC(F)(F)CC2)CCN(C(=O)c2cc(-c3ccc(Cl)cc3Cl)n(-c3ccc(Cl)cc3)c2CCCCO)CC1 [compound 17, 1′-{[1-(4-chlorophenyl)-5-(2,4-dichlorophenyl)-2-(4-hydroxybutyl)-1H-pyrrol-3-yl]carbonyl}-4,4-difluoro-1,4′-bipiperidine-4′-carboxamide]
2 | 74 | 32 | 21 | 0.06 | NC(=O)C1(c2ccc(Cl)cc2)CCN(C(=O)c2cc(-c3ccc(Cl)cc3Cl)n(-c3ccc(Cl)cc3)c2CCCO)CC1 [compound 30, 4-(4-chlorophenyl)-1-{[1-(4-chlorophenyl)-5-(2,4-dichlorophenyl)-2-(3-hydroxypropyl)-1H-pyrrol-3-yl]carbonyl}piperidine-4-carboxamide]
3 | 85 | 60 | 27 |  | NC(=O)C1(c2ccccc2)CCN(C(=O)c2cc(-c3ccc(Cl)cc3Cl)n(-c3ccc(Cl)cc3)c2CCO)CC1 [compound 14, 1-{[1-(4-chlorophenyl)-5-(2,4-dichlorophenyl)-2-(2-hydroxyethyl)-1H-pyrrol-3-yl]carbonyl}-4-phenylpiperidine-4-carboxamide]
4 | 100 | 58 | 5 |  | NC(=O)C1(c2ccccc2)CCN(C(=O)c2cc(-c3ccc(Cl)cc3Cl)n(-c3ccc(Cl)cc3)c2CCCCO)CC1 [compound 13, 1-{[1-(4-chlorophenyl)-5-(2,4-dichlorophenyl)-2-(4-hydroxybutyl)-1H-pyrrol-3-yl]carbonyl}-4-phenylpiperidine-4-carboxamide]
